One data set deals with CHO-K1. The experiment in a line: Cytotoxicity against Chinese hamster CHO-K1 cells assessed as reduction in cell viability upto 1 uM by crystal violet staining based multiplate reader analysis. It counts as toxicity, Cricetulus griseus. The conditions noted are these: cho-k1, 1 µM.
For data set [1], the target named is T1, Muscarinic acetylcholine receptor M3 (Homo sapiens, UniProt P20309). The experiment in a line: Binding affinity to human muscarinic M3 receptor expressed in CHO cells assessed as binding to cell membrane at 100 nM measured for 60 mins in presence of atropine by Hoechst H33342 staining based confocal microscopy. It counts as cell membranes.
Target sequence in this assay (P20309 whole entry, looked up): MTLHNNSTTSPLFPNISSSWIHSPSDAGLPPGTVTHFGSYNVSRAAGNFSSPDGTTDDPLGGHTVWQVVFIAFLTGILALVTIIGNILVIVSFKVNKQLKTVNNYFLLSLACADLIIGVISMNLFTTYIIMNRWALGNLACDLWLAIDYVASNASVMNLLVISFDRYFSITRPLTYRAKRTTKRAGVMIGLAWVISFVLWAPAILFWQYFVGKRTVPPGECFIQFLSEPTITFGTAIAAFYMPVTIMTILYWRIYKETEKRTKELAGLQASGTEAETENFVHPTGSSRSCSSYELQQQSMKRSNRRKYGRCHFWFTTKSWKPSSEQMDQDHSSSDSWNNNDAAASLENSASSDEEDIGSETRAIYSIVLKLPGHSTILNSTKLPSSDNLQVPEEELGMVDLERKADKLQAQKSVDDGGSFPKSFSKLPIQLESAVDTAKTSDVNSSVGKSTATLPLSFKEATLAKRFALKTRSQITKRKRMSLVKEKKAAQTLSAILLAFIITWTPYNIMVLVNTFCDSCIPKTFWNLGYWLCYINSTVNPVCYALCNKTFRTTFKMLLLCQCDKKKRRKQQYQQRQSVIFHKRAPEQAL
For data set [2], the target named is T1, Muscarinic acetylcholine receptor M3. The experiment in a line: Binding affinity to saturated human muscarinic M3 expressed in CHO cells assessed as dissociation constant incubated for 2 hrs by flow cytometry. It counts as cell-based.
Target sequence in this assay (P20309 whole entry): as the sequence (P20309 whole entry, looked up) above
Data set [3] has the same target. The experiment in a line: Binding affinity to human muscarinic M3 receptor expressed in human HEK293T cells assessed as inhibition of carbachol-induced G-protein signaling by measuring inositol accumulation preincubated for 30 mins followed by carbachol stimulation and measured after 90 mins by HTRF assay. It is filed as cell-based.
Target sequence in this assay (P20309 whole entry): as the sequence (P20309 whole entry, looked up) above
The target of data set [4] is T2, Muscarinic acetylcholine receptor M1 (Homo sapiens, UniProt P11229).
T2 sequence (P11229 whole entry): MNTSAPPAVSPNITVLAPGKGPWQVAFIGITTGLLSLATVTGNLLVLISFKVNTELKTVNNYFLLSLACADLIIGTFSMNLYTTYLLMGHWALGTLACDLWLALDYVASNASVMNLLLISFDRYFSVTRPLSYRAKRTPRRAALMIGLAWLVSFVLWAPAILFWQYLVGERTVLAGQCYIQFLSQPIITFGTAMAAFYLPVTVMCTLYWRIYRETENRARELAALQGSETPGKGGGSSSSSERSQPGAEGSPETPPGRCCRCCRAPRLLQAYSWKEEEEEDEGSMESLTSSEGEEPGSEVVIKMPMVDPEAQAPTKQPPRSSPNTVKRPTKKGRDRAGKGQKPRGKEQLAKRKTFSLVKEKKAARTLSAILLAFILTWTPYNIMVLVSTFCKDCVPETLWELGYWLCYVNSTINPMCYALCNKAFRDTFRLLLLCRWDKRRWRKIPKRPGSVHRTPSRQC
The experiment in a line: Displacement of [3H]N-methylscopolamine from human muscarinic M1 receptor expressed in human HEK293T cell membranes by radioligand competition binding based analysis. Set-up: species or system Cell membrane.

Data set [5] has as its target T1, Muscarinic acetylcholine receptor M3. The experiment in a line: Binding affinity to human muscarinic M3 expressed in CHO cells assessed as dissociation rate constant preincubated for 20 mins in dark followed by atropine addition and measured after 1 to 130 mins by flow cytometry. It is filed as cell-based. To be noted: time lower […], time upper 150.0 min.
Target sequence in this assay (P20309 whole entry, looked up): as the sequence (P20309 whole entry, looked up) above
For data set [6] the target is unchanged. The experiment in a line: Binding affinity to human muscarinic M3 expressed in CHO cells assessed as association rate constant incubated for 0.5 to 36 mins in presence of atropine by flow cytometry. The conditions noted are these: time lower 0.5 min, time upper […]. It is filed as cell-based.
Target sequence in this assay (P20309 whole entry, looked up): as the sequence (P20309 whole entry, looked up) above
For data set [7] the target is unchanged. The experiment in a line: Displacement of [3H]N-methylscopolamine from human muscarinic M3 receptor expressed in human HEK293T cell membranes by radioligand competition binding based analysis. Also noted: species or system Cell membrane.
Target sequence in this assay (P20309 whole entry): as the sequence (P20309 whole entry, looked up) above
Data set [8] is filed under the species Homo sapiens. Put plainly: Selectivity ratio, Ki for displacement of [3H]N-methylscopolamine from human muscarinic M5 receptor expressed in human HEK293T cell membranes to Ki for displacement of [3H]N-methylscopolamine from human muscarinic M3 receptor expressed in human HEK293T cell membranes.
Data set [9] has as its target T1, Muscarinic acetylcholine receptor M3. Put plainly: Binding affinity to human muscarinic M3 receptor expressed in human HEK293T cells co-expressing beta-arrestin2 assessed as inhibition of carbachol-induced beta-arrestin recruitment preincubated for 30 mins followed by carbachol stimulation and measured after 90 mins by PathHunter assay. It is filed as cell-based.
Target sequence in this assay (P20309 whole entry): as the sequence (P20309 whole entry, looked up) above

For data set [10], the target named is T2, Muscarinic acetylcholine receptor M1. The experiment in a line: Binding affinity to saturated human muscarinic M1 expressed in CHO cells assessed as dissociation constant incubated for 2 hrs in presence of atropine by flow cytometry. It is filed as cell-based.
In data set [11] the target is T1, Muscarinic acetylcholine receptor M3. Put plainly: Binding affinity to human muscarinic M3 receptor expressed in CHO cells assessed as binding to cell membrane at 60 nM measured for 60 mins in presence of atropine by Hoechst H33342 staining based confocal microscopy. It is filed as cell membranes.
Target sequence in this assay (P20309 whole entry, looked up): as the sequence (P20309 whole entry, looked up) above
The target is the same in data set [12]. Put plainly: Displacement of atropine from human muscarinic M3 receptor expressed in CHO cells incubated for 2 hrs by flow cytometric competition binding assay. It counts as cell-based.
Target sequence in this assay (P20309 whole entry): as the sequence (P20309 whole entry, looked up) above
Data set [13] has the same target. Put plainly: Binding affinity to saturated human muscarinic M3 expressed in CHO cells assessed as dissociation constant incubated for 2 hrs in presence of atropine by flow cytometry. It is filed as cell-based.
Target sequence in this assay (P20309 whole entry): as the sequence (P20309 whole entry, looked up) above
In data set [14] the target is T3, Muscarinic acetylcholine receptor M2 (Homo sapiens, UniProt P08172).
T3 sequence (P08172 whole entry): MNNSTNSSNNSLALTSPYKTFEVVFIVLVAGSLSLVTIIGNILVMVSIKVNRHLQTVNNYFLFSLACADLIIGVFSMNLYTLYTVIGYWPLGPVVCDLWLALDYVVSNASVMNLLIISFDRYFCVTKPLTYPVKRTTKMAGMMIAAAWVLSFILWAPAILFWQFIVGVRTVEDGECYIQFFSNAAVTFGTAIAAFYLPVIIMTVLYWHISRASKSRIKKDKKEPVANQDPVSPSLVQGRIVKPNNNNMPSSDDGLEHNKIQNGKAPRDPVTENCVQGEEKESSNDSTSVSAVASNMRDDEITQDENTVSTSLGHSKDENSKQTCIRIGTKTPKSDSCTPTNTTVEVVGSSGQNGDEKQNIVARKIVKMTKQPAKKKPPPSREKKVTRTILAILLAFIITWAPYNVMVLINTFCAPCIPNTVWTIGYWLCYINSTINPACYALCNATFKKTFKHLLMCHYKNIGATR
The experiment in a line: Displacement of [3H]N-methylscopolamine from human muscarinic M2 receptor expressed in human HEK293T cell membranes by radioligand competition binding based analysis. Set-up: species or system Cell membrane.

Data set [15] has as its target T4, Muscarinic acetylcholine receptor M5 (Homo sapiens, UniProt P08912).
T4 sequence (P08912 whole entry): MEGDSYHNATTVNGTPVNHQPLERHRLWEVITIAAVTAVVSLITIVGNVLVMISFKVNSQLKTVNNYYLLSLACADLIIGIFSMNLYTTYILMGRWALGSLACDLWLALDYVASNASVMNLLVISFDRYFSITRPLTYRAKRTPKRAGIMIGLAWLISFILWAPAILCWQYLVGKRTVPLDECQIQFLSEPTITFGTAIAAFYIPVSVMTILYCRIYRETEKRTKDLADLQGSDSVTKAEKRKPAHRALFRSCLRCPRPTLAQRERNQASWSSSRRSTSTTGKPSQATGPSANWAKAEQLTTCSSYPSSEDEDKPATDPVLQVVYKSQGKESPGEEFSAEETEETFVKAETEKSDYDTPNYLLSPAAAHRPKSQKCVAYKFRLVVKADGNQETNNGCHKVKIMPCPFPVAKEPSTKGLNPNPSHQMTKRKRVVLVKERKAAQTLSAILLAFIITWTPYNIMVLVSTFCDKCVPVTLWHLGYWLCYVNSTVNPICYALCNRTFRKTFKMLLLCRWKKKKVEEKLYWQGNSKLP
Put plainly: Displacement of [3H]N-methylscopolamine from human muscarinic M5 receptor expressed in human HEK293T cell membranes by radioligand competition binding based analysis. Also noted: species or system Cell membrane.

In data set [16] the target is T1, Muscarinic acetylcholine receptor M3. The experiment in a line: Binding affinity to human muscarinic M3 receptor expressed in CHO cells assessed as binding to cell membrane at 60 nM measured for 60 mins by Hoechst H33342 staining based confocal microscopy. It is filed as cell membranes.
Target sequence in this assay (P20309 whole entry, looked up): as the sequence (P20309 whole entry, looked up) above
Data set [17] shares this target. Put plainly: Binding affinity to human muscarinic M3 receptor expressed in CHO cells assessed as binding to cell membrane at 100 nM measured for 60 mins by Hoechst H33342 staining based confocal microscopy. It counts as cell membranes.
Target sequence in this assay (P20309 whole entry, looked up): as the sequence (P20309 whole entry, looked up) above
The species named for data set [18] is Homo sapiens. The experiment in a line: Selectivity ratio, Ki for displacement of [3H]N-methylscopolamine from human muscarinic M4 receptor expressed in human HEK293T cell membranes to Ki for displacement of [3H]N-methylscopolamine from human muscarinic M3 receptor expressed in human HEK293T cell membranes.
The target in data set [19] is T5, Muscarinic acetylcholine receptor M4 (Homo sapiens, UniProt P08173).
T5 sequence (P08173 whole entry): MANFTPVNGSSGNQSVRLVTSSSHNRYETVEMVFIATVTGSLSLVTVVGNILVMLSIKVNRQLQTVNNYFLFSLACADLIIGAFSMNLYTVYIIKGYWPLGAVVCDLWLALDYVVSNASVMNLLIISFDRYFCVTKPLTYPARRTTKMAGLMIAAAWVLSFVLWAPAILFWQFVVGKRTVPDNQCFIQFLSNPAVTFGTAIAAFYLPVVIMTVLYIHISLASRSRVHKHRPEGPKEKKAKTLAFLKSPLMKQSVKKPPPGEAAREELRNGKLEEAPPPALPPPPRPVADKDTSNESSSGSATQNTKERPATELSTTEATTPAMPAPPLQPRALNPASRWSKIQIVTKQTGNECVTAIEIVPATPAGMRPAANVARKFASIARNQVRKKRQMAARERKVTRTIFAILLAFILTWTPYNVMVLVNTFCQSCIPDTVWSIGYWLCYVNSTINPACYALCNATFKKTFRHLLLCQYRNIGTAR
Put plainly: Displacement of [3H]N-methylscopolamine from human muscarinic M4 receptor expressed in human HEK293T cell membranes by radioligand competition binding based analysis. Also noted: species or system Cell membrane.

Data set [20] deals with T1, Muscarinic acetylcholine receptor M3. Put plainly: Displacement of tiotropium bromide from human muscarinic M3 receptor expressed in CHO cells incubated for 4 hrs by flow cytometric competition binding assay. It is filed as cell-based.
In data set [21] the target is T2, Muscarinic acetylcholine receptor M1. The experiment in a line: Binding affinity to saturated human muscarinic M1 expressed in CHO cells assessed as dissociation constant incubated for 2 hrs by flow cytometry. It is filed as cell-based.
In data set [22] the target is T1, Muscarinic acetylcholine receptor M3. The experiment in a line: Binding affinity to human muscarinic M3 expressed in CHO cells assessed as association rate constant incubated for 1 to 75 mins in presence of atropine by flow cytometry. It is filed as cell-based. To be noted: time 1-75 min.
For data set [23] the target is unchanged. The experiment in a line: Binding affinity to human muscarinic M3 expressed in CHO cells assessed as dissociation rate constant preincubated for 55 mins in dark followed by atropine addition and measured after 1 to 152 mins by flow cytometry. It counts as cell-based. The conditions noted are these: time 56-207 min.

The source made the active and inactive calls. No cut-off for these calls is given here.

Consider `CN(C)c1ccc2c(-c3ccc(-c4cn(CCCCCn5cc(CCCCCCN6CCC(COC(=O)Nc7ccc(F)cc7-c7ccc(F)c(Cl)c7)CC6)nn5)nn4)cc3C(=O)[O-])c3ccc(=[N+](C)C)cc-3oc2c1`, for which the Activity result in the data set with CHO-K1 is “Non-Toxic”. In addition, the outcome in [1] and in data set [11] was inactive. The Kd in data set [2] worked out at 23 nM; in data set [10] it was 8.3 nM; in data set [13], 24 nM; in data set [21], 7.3 nM. The IC50 in data set [3] is 130 nM; in data set [9] it was 430 nM. Moreover, the Ki is 1.5 nM in [4]; 1.2 nM in [7]; 2.3 nM in [12] (read-out: Ki); 2.19 nM in [12] (read-out: pKi (converted)); 11 nM in data set [14]; 7.4 nM in data set [15]. For the same compound, the Ki was 1.4 nM in data set [19], 0.15 nM in [20] (read-out: Ki) and 0.132 nM in data set [20] (read-out: pKi (converted)). The Kdiss in data set [5] came to 0.024 min⁻¹. Moreover, the ka in data set [6] amounted to 0.37 min⁻¹. For the same compound, the Selectivity ratio worked out at 6.2 in the data set listed under Homo sapiens [8] and 1.2 in the data set listed under Homo sapiens [18]. The result in data set [16] and in data set [17] was Active.

As to `CC1(C)C(/C=C/C=C/C=C2/N(CCCCS(=O)(=O)O)c3ccccc3C2(C)C)=[N+](CCCCCC(=O)NCCCCCCCCN2CCC(OC(=O)Nc3ccc(F)cc3-c3ccc(F)c(Cl)c3)CC2)c2ccc(S(=O)(=O)[O-])cc21`, the Activity result in the data set on CHO-K1 is “Non-Toxic”. In addition, the result in data set [1] and in data set [11] was inactive. Further, the Kd in data set [2] is 54 nM; in data set [10], 6.5 nM; in [13], 49.7 nM; in data set [21], 6 nM. For the same compound, the figures for the IC50 in [3] and in data set [9] were 300 nM and 450 nM, respectively. Besides, the ka in data set [22] came out at 0.09 min⁻¹. Moreover, the Ki is 0.73 nM in data set [4]; 14 nM in data set [7]; 2.4 nM in data set [12] (read-out: Ki); 2.14 nM in data set [12] (read-out: pKi (converted)); 9.6 nM in data set [14]; 5.5 nM in [15]. Also, the Ki in [19] came to 0.87 nM; in [20] (read-out: Ki) it was 0.14 nM. Further, in data set [23], the Kdiss worked out at 0.026 min⁻¹. Besides, the figures for the Selectivity ratio in the data set filed under Homo sapiens [8] and in the data set filed under Homo sapiens [18] were 0.39 and 0.06, respectively. For the same compound, the outcome in data set [16] and in data set [17] was Active.

The values above are taken from ChEMBL document CHEMBL5236624, “Synthesis, Characterization, and Application of Muscarinergic M3 Receptor Ligands Linked to Fluorescent Dyes” (J Med Chem, 2022).
